In PMC9478491, “Therapeutic effects and mechanisms of N-(9,10-anthraquinone-2-ylcarbonyl) xanthine oxidase inhibitors on hyperuricemia” (Frontiers in Pharmacology, 2022):
Several values for one entry are separate records, joined by “and”; a condition that tells them apart may be missing. Equal entries are not always repeated. Where two headings read alike, the source gives them in different places.

Assays:
mice = system: mice; design: method as in Izmerov et al., 1982; settings: ref Izmerov et al., 1982; cited from earlier work
rats = system: rats; design: method as in Izmerov et al., 1982; settings: ref Izmerov et al., 1982; cited from earlier work
[1] = system: TNF-α, IL-6, IL-1β, NLRP3; experiment: TNF-α, IL-6, IL-1β, NLRP3 in HK-2 culture supernatant (ELISA); format: cell-based, human; settings: HK-2 cells, allopurinol 100 μmol/L, p < 0.01
Source text: The culture, induction, and administration of hyperuricemia HK-2 cells were the same as described earlier. Finally, the supernatant of the culture medium was collected to detect the levels of inflammatory factors. ELISA kits were used to detect the supernatant TNF-α, IL-6, IL-1β, and NLRP3 levels of the culture medium.

[2] = system: potassium oxonate-induced hyperuricemia mice; experiment: Morphology (HE) of renal and liver tissue in hyperuricemia mice; format: in vivo, mouse; settings: allopurinol 10 mg/kg
Source text: The liver and kidney tissues fixed in paraformaldehyde were dehydrated to be transparent. Then put the transparent tissue block into the melted paraffin, and embed it after the paraffin is completely immersed in the tissue block. Fix the embedded wax block on the microtome and cut it into 5 μm thin slices. The thin slice is ironed in hot water, then pasted on the glass slide, and dried. Before staining, paraffin wax in the sections was removed with xylene, then soaked with high to low concentration alcohol, and finally soaked in distilled water for 2 min. The dewaxed and rehydrated slices were stained in hematoxylin solution for several minutes and then washed with running water. Then put the slices into 1% hydrochloric alcohol (5–10 s) and rinse with tap water, after rinsing, place the slices in distilled water. After 2 min, the slices were removed and dehydrated with […]. After dehydration, the slices were stained with alcohol eosin solution for 2–3 min. After dehydration by alcohol, xylene was used to make the slices transparent. Finally, the transparent slices were dripped with gum and sealed with a cover glass.
Potassium oxonate (model drug), NAY (drug to be tested), and allopurinol (positive drug) were dissolved or suspended in double steaming water. […]

[3] = Pharmacokinetics in rats (HPLC-MS/MS, WinNonlin); format: in vivo, SD rats
Procedure: The volume of intravenous administration was 1 ml/250 g, and the volume of oral administration was 1 ml/100 g. Whole blood was collected at 2, 5, 10, 20, 30, 60, 120, 240, 360, 480, 720, and 1440 min after intravenous administration. The rats’ blood was transferred to the heparinized test tube. The whole blood was centrifuged at 8,000 rpm for 5 min, and the plasma was separated and stored in a refrigerator at -80°C for testing.

XOD [4] = format: cell-based, mouse; settings: AML12 cells, allopurinol 100 μmol/L, p < 0.001
patients = system: patients; design: method as in Madero et al., 2009; Liu et al., 2016; settings: patients taking allopurinol; ref Madero et al., 2009; Liu et al., 2016; cited from earlier work
XOD [5] = experiment: Western blot, XOD protein in AML12 cells; format: cell-based, mouse; settings: allopurinol 100 μmol/L, p < 0.01
Procedure: The total protein of HK-2 cells and AML12 cells were extracted with total protein extraction kit, and the concentration was determined by the BCA kit. Electrophoresis, membrane transfer, antibody incubation, and other operations were performed in accordance with the Western blot experiment procedures. The protein bands were quantified by ImageJ software and normalized to individual β-actin expression levels.

[6] = system: potassium oxonate-induced hyperuricemia mice; experiment: UA, CRE and BUN in serum and urine of hyperuricemia mice; format: in vivo, mouse; settings: allopurinol 10 mg/kg gavage, 7 days
Procedure: Ninety SPF male KM mice (20 ± 2 g) were maintained in a normally controlled breeding room with standard laboratory food and water for 1 week prior to the experiments. The uricase inhibitor potassium oxonate was used to induce hyperuricemia in mice, according to previous reports ([Chen et al., 2019]).
Potassium oxonate (model drug), NAY (drug to be tested), and allopurinol (positive drug) were dissolved or suspended in double steaming water. The drug dose used is expressed in “mg/kg.” The dose given for each dose is converted based on the body surface area conversion method. […] Except the normal control mice, others were orally administered by 250 mg/kg potassium oxonate once daily for seven consecutive days to induce hyperuricemia. […] After 7 days’ treatment, diets were removed from the cages 12 h before the animals were sacrificed. The blood was allowed to clot for approximately 1 h at room temperature and centrifuged at 3,000 rpm for 10 min to obtain serum. Serum was divided into three portions, one to detect biochemical markers such as UA, one to detect inflammatory factors, and the remaining stored at−20°C as a backup. […]
The levels of serum UA, CRE, and BUN were measured by using the method recommended in the purchase kit. The levels of serum TNF-α, IL-6, and NLRP3 were measured by using the method recommended in the ELISA kits.

HK-2 cells = experiment: Culture supernatant UA level of hyperuricemia HK-2 cells; format: cell-based, human; settings: allopurinol 100 μmol/L
Procedure: According to the establishment method of HK-2 cells, hyperuricemia model was reported in the literature ([Hou et al., 2019]), and HK-2 cells was cultured in a complete medium in a 5% CO2, 37°C cell incubator. The cells in the logarithmic growth phase were inoculated on a 24-well plate at a concentration of 10^5 cells/ml. The cells were cultured in a 37 °C incubator for 24 h. 24 h later, discard the culture medium, and wash cells by PBS for three times. Add 2.5 mmol/L adenosine solution prepared from the incomplete medium to each well and incubate in the incubator for 24 h. Then 0.005 IU/mg XO solution was added to each well in the 24-well plate, and the supernatant was collected after incubation for 12 h. The absorbance was measured on the microplate reader using the UA kit.
Hk-2 cells were cultured in a 5% CO2 cell incubator at 37 °C in complete medium. The cells in the logarithmic growth phase were inoculated on a 24-well plate at a concentration of 10^5 cells/ml and cultured in a 5% CO2 cell incubator at 37°C for 24 h. After 24 h, the culture medium was discarded and washed with PBS for three times. […] After 24 h, the model and drug administration groups were washed with PBS for three times, and the model and drug administration groups were added with 2.5 mmol/L adenosine solution prepared with incomplete whole medium and incubated in an incubator for 24 h. […]

AML12 cells = experiment: Culture supernatant UA level of hyperuricemia AML12 cells; format: cell-based, mouse; settings: allopurinol 100 μmol/L, p < 0.001
Procedure: AML12 cells in logarithmic growth were digested with trypsin, and cell suspension was made by pipette blowing. After counting with a blood counting plate, the cells were diluted to 10^5 cells/mL, and 1 ml of each well was inoculated in a medium dish. The cells were placed in a 5% (V/V) CO2 cell incubator at 37 °C for 24 h. 24 h later, the cell supernatant was discarded, washed with PBS for three times, and the adenosine solution prepared with the current basic medium without fetal bovine serum as the solvent was added. The dosage of adenosine was 1.5 mmol/L, and the cells were placed in the cell culture box for further incubation for 24 h. The culture dish was taken out, 0.005 IU xanthine oxidase (XO) was added to each well, and incubated in the cell incubator for 24 h, and then the hyperuricemia liver cell model was obtained.
AML12 cells were cultured in complete medium at 37 °C and a 5% CO2 cell incubator. Logarithmic growth cells were made into cell suspension with trypsin. The cells were inoculated into 24-well plates at the concentration of 10^5 cells/ml and cultured in a cell incubator at 37°C and 5% CO2 for 24 h. After the cells adhered to the wall, the medium in 24-well plates was discarded and washed with PBS for three times. […] After 24 h, the model and administration groups were washed with PBS for three times. […]

[7] = allopurinol, rats, gavage 50 mg/kg, n = 3
[8] = allopurinol, rats, gavage 50 mg/kg, single animals, 50 mg/kg
[9] = allopurinol, rats, intravenous injection 5 mg/kg, single animals, 5 mg/kg

Structure (SMILES): O=C1c2ccccc2C(=O)c2ccccc21 [AQ, 9,10-anthraquinone]
- acute oral toxicity LD50 (mice): > 5,000 mg/kg BW
- acute oral toxicity LD50 (rats): > 5,000 mg/kg BW

Structure (SMILES): Oc1ncnc2[nH]ncc12 [allopurinol]
- IL-6 level in medium supernatant [1]: could reduce the IL-6 level
- TNF-α level in medium supernatant [1]: significantly reduced the TNF-α level
- liver tissue morphology (HE) [2]: many inflammatory cell infiltrates with a small number of hepatocyte necrosis
- renal tissue morphology (HE) [2]: Renal cortical inflammatory cell infiltration and marked tubular luminal expansion
- AUC(0-t) ([3]; SD, rat, plasma, iv, 5 mg/kg, allopurinol, rats, intravenous injection 5 mg/kg, n = 3, read-out: AUC (0–t), Average): 1540 ng·h/mL
- AUC(0-inf) ([3]; SD, rat, plasma, iv, 5 mg/kg, allopurinol, rats, intravenous injection 5 mg/kg, n = 3, read-out: AUC (0–∞), Average): 1590 ng·h/mL
- MRT inf ([3]; SD, rat, plasma, iv, 5 mg/kg, allopurinol, rats, intravenous injection 5 mg/kg, n = 3, read-out: MRT (0–∞), Average): 0.27 h
- AUC(0-t) ([3]; SD, rat, plasma, iv, 5 mg/kg, allopurinol, rats, intravenous injection 5 mg/kg, single animals, read-out: AUC (0–t), individual rats 1-3): 1600 ng·h/mL
- AUC(0-inf) ([3]; SD, rat, plasma, iv, 5 mg/kg, allopurinol, rats, intravenous injection 5 mg/kg, single animals, read-out: AUC (0–∞), individual rats 1-3): 1650 ng·h/mL
- MRT inf ([3]; SD, rat, plasma, iv, 5 mg/kg, allopurinol, rats, intravenous injection 5 mg/kg, single animals, read-out: MRT (0–∞), individual rats 1-3): 0.27 h
- AUC(0-inf) ([3]; SD, rat, plasma, iv, 5 mg/kg, allopurinol, rats, intravenous injection 5 mg/kg, read-out: AUC0-∞): 1590 ± 139 ng·h/mL
- concentration at 2 min ([3]; SD, rat, plasma, iv, 5 mg/kg, read-out: C2min (drug concentration in plasma)): 5280 ± 686 ng/mL
- k el ([3]; SD, rat, plasma, iv, 5 mg/kg, read-out: elimination rate constant K (converted)): 0.000964 s⁻¹
- bioavailability ([3]; SD, rat, plasma, oral, 50 mg/kg, read-out: F): 158%
- AUC(0-t) ([3]; SD, rat, plasma, po, 50 mg/kg, allopurinol, rats, gavage 50 mg/kg, n = 3, read-out: AUC (0–t), Average): 24500 ng·h/mL
- AUC(0-inf) ([3]; SD, rat, plasma, po, 50 mg/kg, allopurinol, rats, gavage 50 mg/kg, n = 3, read-out: AUC (0–∞), Average): 25100 ng·h/mL
- Cmax ([3]; SD, rat, plasma, po, 50 mg/kg, allopurinol, rats, gavage 50 mg/kg, n = 3, read-out: Cmax, Average): 6610 ng/mL
- MRT inf ([3]; SD, rat, plasma, po, 50 mg/kg, allopurinol, rats, gavage 50 mg/kg, n = 3, read-out: MRT (0–∞), Average): 2.36 h
- AUC(0-t) ([3]; SD, rat, plasma, po, 50 mg/kg, allopurinol, rats, gavage 50 mg/kg, single animals, read-out: AUC (0–t), individual rats 1-3): 27500 ng·h/mL
- AUC(0-inf) ([3]; SD, rat, plasma, po, 50 mg/kg, allopurinol, rats, gavage 50 mg/kg, single animals, read-out: AUC (0–∞), individual rats 1-3): 28700 ng·h/mL
- Cmax ([3]; SD, rat, plasma, po, 50 mg/kg, allopurinol, rats, gavage 50 mg/kg, single animals, read-out: Cmax, individual rats 1-3): 6100 ng/mL
- MRT inf ([3]; SD, rat, plasma, po, 50 mg/kg, allopurinol, rats, gavage 50 mg/kg, single animals, read-out: MRT (0–∞), individual rats 1-3): 2.88 h
- Tmax ([3]; SD, rat, plasma, po, 50 mg/kg, read-out: Tmax, individual rats 1-3): 1 h
- bioavailability ([3]; SD, rat, plasma, po, 50 mg/kg, read-out: calculated bioavailability): 158%
- Tmax, Average [3, 7]: 1.00 h
- V/F, Average [3, 7]: 3.18 L/kg
- Tmax, individual rats 1-3 ([3]; allopurinol, rats, gavage 50 mg/kg, single animals): 1.00 h
- AUC (0–t), individual rats 1-3 [3, 8]: 19623.63 ng·h/mL and 26462.91 ng·h/mL
- AUC (0–∞), individual rats 1-3 [3, 8]: 20029.34 ng·h/mL and 26666.72 ng·h/mL
- Cmax, individual rats 1-3 [3, 8]: 5,968.97 ug/L and 7742.83 ug/L
- MRT (0–∞), individual rats 1-3 [3, 8]: 1.84 h and 2.35 h
- V/F, individual rats 1-3 [3, 8]: 3.19 L/kg and 3.81 L/kg and 2.53 L/kg
- V, Average ([3]; allopurinol, rats, intravenous injection 5 mg/kg, n = 3): 0.92 L/kg
- AUC (0–t), individual rats 1-3 [3, 9]: 1383.23 ng·h/mL and 1648.60 ng·h/mL
- AUC (0–∞), individual rats 1-3 [3, 9]: 1432.09 ng·h/mL and 1687.42 ng·h/mL
- MRT (0–∞), individual rats 1-3 [3, 9]: 0.29 h
- V, individual rats 1-3 [3, 9]: 0.91 L/kg and 1.05 L/kg and 0.81 L/kg
- XOD activity vs model group (XOD [4]): effect of the allopurinol group on reducing XOD viability and the level of supernatant UA were obvious
- patients who can reduce serum UA concentration to the target level (patients): less than 40%
- XOD protein expression vs model group (XOD [5]): significantly reduced
- serum UA, CRE and BUN levels vs model group [6]: obviously decreased the aforementioned indexes
- UA levels in hyperuricemia cell model (HK-2 cells): could reduce UA levels
- supernatant UA level vs model group (AML12 cells): effect of the allopurinol group on reducing XOD viability and the level of supernatant UA were obvious
